Consider 7 compounds from ChEMBL document CHEMBL1201862, “PubChem BioAssay data set” (2004).

Active and inactive are the calls of the source.

The target in assay [1] is DNA dC->dU-editing enzyme APOBEC-3A (Homo sapiens, UniProt P31941). The experiment in a line: Dose Response confirmation of small molecule APOBEC3A DNA Deaminase Inhibitors via a fluorescence-based single-stranded DNA deaminase assay. [Related pubchem assays (depositor defined):AID493011, AID493024]. It counts as functional.
The target of assay [2] is Eukaryotic translation initiation factor 4H (Homo sapiens, UniProt Q15056). Kind of assay: eIF4H binding inhibition – biochemical, uHTS, fluorescence polarization, translation initiation inhibitor project, primary screen (AID 2012).
In assay [3] the target is DNA dC->dU-editing enzyme APOBEC-3G (Homo sapiens, UniProt Q9HC16). It is filed as functional.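 Note: Dose-response counterscreen measuring inhibition of APOBEC3G DNA deaminase activity, run while confirming APOBEC3A inhibitors.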
For assay [4], the target named is Polyadenylate-binding protein 1 (Homo sapiens, UniProt P11940). Kind of assay: blockers of PABP interaction with poly(A) – biochemical, fluorescence polarization, […] (AID 2014). For orientation: In fluorescence polarisation assays a small probe gives low polarisation when free and higher when bound to something large.
Assay [5] addresses Coagulation factor XII (Homo sapiens, UniProt P00748). It is filed as functional.
Assay [6] has as its target Alkaline phosphatase, placental type (Homo sapiens, UniProt P05187). The experiment in a line: human placental alkaline phosphatase inhibition – biochemical, luminescence, confirmation (AID 1512). It counts as functional.
Assay [7] deals with T1, Alkaline phosphatase, tissue-nonspecific isozyme (Homo sapiens, UniProt P05186).
T1 sequence (P05186 whole entry): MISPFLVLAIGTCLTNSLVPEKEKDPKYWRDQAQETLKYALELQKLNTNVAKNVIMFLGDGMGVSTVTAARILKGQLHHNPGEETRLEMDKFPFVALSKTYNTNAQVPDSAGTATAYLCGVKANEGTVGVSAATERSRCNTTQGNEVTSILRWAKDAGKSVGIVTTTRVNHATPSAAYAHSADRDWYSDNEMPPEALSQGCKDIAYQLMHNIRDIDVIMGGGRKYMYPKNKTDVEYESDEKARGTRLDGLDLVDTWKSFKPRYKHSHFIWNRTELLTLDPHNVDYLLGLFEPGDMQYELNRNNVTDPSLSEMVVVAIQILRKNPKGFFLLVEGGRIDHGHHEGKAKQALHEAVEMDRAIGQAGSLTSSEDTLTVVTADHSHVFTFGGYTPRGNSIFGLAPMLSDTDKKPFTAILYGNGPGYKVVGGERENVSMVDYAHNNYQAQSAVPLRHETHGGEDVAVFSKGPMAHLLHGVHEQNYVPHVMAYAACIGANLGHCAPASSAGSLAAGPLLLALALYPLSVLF
Kind of assay: potency against alkaline phosphatase TNAP – biochemical, luminescent, dose response, SAR follow-up (AID 1056).

The target of assay [8] is Glyceraldehyde-3-phosphate dehydrogenase (Homo sapiens, UniProt P04406).
The nature of assay [9]: viability loss of HPDE-C7K cells – cell-based, fluorescence, HTS, primary screen (AID 431). It is filed as functional. As to conditions: Homo sapiens.
Assay [10] has as its target T2, Bcl-2-like protein 10 (Homo sapiens, UniProt Q9HD36).
T2 sequence (Q9HD36 whole entry): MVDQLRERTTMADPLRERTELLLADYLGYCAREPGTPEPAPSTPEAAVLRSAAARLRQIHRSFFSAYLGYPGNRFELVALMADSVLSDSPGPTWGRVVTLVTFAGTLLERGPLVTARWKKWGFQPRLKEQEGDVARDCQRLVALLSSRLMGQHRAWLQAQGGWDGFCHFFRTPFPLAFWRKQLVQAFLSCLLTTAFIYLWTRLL
Kind of assay: Bcl-B/TR3 peptide binding disruption – biochemical, fluorescence polarization, FITC-TR3 peptide, selectivity assay for Bfl-1 inhibitor project, primary screen (AID 748).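 Note: fluorescence polarization from a fluorescein-labelled TR3 peptide binding purified Bcl-B.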

A short description of assay [11]: HPDE-C7 pancreatic duct cell viability loss – fluorescence, HTS (AID 430). It counts as functional, cell-based. Conditions: Homo sapiens.
Assay [12] deals with T3, Estrogen receptor (Homo sapiens, UniProt P03372).
T3 sequence (P03372 whole entry): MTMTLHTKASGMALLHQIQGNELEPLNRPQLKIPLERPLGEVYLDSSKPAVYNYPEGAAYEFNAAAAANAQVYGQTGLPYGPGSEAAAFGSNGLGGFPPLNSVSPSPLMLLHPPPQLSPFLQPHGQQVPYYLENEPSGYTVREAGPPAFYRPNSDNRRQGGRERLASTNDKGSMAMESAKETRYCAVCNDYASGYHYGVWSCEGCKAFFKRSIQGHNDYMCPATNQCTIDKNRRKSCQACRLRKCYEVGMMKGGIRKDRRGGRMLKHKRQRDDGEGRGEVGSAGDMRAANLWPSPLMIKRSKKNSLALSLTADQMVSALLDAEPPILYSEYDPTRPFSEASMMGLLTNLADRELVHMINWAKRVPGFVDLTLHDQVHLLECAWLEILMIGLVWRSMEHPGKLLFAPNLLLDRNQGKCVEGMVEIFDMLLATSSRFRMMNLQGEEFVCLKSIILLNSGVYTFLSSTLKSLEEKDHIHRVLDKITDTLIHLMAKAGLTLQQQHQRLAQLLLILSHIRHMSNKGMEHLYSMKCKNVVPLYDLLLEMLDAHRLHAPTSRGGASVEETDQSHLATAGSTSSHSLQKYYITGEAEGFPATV

Assay [13] addresses T4, Estrogen receptor beta (Homo sapiens, UniProt Q92731).
In assay [14] the target is T5, Protein Tat (Human immunodeficiency virus type 1 group M subtype B (isolate HXB2)(HIV-1), UniProt P04608).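 Note: tat binding to TAR RNA read out by fluorescence polarization.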
T5 sequence (P04608 whole entry): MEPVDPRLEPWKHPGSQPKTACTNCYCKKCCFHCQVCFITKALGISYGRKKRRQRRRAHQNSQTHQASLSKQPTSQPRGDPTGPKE
It is filed as functional.

Assay [15] addresses T4, Estrogen receptor beta. The experiment in a line: blockers of SRC-3 recruitment to ERβ – biochemical, ELISA, streptavidin-HRP readout, orthogonal assay, confirmation (AID 1060). For orientation: ELISA stands for enzyme-linked immunosorbent assay.
For assay [16], the target named is T6, Phosphomannomutase 2 (Homo sapiens, UniProt O15305).
T6 sequence (O15305 whole entry): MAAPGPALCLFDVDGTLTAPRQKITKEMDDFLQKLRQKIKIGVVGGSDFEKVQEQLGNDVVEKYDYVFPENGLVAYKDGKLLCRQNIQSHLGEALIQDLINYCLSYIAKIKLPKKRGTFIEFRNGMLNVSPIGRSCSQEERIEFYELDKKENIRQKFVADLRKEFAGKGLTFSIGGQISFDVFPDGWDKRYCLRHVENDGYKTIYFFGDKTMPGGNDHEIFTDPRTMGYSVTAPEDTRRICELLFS
The experiment in a line: Counter screen SAR assay for PMM2 inhibitors via a fluorescence intensity assay. [Related pubchem assays (depositor defined):AID1545, AID1574]. On the technique in general: Counterscreens check selectivity or assay interference.

Assay [17] in a line: viability loss in HeLa cells – cytotoxicity control for MgcRacGAP inhibitor project, dose response (AID 624300). It counts as functional.
In assay [18] the target is Glucose-6-phosphate 1-dehydrogenase (Homo sapiens, UniProt P11413). Kind of assay: inhibition of Homo sapiens G6PD, dose series – biochemical, fluorescence, selectivity assay for P. falciparum G6PD inhibitor project, dose response (AID 504792). It counts as functional.
In assay [19] the target is Hexokinase (Trypanosoma brucei, UniProt Q38C41). The experiment in a line: Confirmation assay for inhibitors of Trypanosoma brucei hexokinase 1-Analogue-first series. [Related pubchem assays (depositor defined):AID1430, AID1632, AID2516, AID2560, AID2579, AID2600, AID449725, AID492951]. It counts as functional.
The target of assay [20] is T7, Rac GTPase-activating protein 1 (Homo sapiens, UniProt Q9H0H5).
T7 sequence (Q9H0H5 whole entry): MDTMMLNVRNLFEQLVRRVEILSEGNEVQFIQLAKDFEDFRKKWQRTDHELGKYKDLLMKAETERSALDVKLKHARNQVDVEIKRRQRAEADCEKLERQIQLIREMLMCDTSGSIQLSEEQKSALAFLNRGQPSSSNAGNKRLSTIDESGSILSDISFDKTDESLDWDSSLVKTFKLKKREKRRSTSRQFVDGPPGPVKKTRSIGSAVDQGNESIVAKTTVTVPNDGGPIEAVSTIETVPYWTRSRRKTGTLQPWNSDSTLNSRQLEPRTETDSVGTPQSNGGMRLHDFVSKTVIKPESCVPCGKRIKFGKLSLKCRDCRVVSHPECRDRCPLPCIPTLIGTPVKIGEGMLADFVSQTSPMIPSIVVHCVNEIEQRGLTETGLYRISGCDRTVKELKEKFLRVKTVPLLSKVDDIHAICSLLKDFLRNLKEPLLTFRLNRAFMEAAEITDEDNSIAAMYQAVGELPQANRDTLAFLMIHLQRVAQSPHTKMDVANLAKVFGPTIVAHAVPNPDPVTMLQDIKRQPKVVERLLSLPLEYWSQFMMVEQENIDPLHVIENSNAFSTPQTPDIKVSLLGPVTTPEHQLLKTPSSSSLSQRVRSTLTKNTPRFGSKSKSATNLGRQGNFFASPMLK
Kind of assay: blockers of MgcRacGAP-driven Rac1 GTP hydrolysis – biochemical, ADP Hunter fluorescence, primary and confirmatory, confirmation (AID 624330). It counts as functional.

Assay [21] concerns Streptococcus. Kind of assay: GAS UMAA2166 growth inhibition – luminescence, BacTiterGlo, counter-screen for streptokinase expression inhibitor project, dose response (AID 1915).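 Note: potency for reduction of bacterial viability or growth.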 It counts as functional, organism-based.
Assay [22] has as its target T8, Streptokinase A (Streptococcus pyogenes serotype M1, UniProt P10520).
T8 sequence (P10520 whole entry): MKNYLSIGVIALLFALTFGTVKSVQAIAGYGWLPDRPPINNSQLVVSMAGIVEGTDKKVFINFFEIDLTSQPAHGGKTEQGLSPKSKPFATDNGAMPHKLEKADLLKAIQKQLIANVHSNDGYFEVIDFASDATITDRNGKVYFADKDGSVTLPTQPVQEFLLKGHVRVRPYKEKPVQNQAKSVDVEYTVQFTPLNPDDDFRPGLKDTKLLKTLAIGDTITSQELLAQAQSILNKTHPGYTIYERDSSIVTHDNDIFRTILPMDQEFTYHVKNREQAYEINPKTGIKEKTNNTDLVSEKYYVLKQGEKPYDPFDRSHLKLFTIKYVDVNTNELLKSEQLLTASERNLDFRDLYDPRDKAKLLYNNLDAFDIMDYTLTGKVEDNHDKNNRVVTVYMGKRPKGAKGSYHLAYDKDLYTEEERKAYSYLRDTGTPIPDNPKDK
The experiment in a line: viability-normalized secreted streptokinase activity reduction – plasminogen activation absorbance, OD405, dose response (AID 1914).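 Note: secreted streptokinase activity via plasminogen activation per viability signal from cell pellet.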 It is filed as functional, Streptococcus pyogenes M1 GAS.

Assay [23] concerns Streptococcus sp. 'group A'. The experiment in a line: Streptococcus pyogenes SK(-)GAS viability under kanamycin – luminescence, BacTiterGlo, confirmation, counter-screen for streptokinase expression inhibitor project, dose response (AID 1900). It counts as functional, organism-based.

DNA dC->dU-editing enzyme APOBEC-3A, sequence (P31941 whole entry): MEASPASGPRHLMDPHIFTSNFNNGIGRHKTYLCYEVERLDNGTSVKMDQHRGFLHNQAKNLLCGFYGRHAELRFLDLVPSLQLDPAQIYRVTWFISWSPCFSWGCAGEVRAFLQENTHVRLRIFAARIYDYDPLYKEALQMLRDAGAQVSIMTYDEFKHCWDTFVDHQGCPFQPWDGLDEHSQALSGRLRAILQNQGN
DNA dC->dU-editing enzyme APOBEC-3G, sequence (Q9HC16 whole entry): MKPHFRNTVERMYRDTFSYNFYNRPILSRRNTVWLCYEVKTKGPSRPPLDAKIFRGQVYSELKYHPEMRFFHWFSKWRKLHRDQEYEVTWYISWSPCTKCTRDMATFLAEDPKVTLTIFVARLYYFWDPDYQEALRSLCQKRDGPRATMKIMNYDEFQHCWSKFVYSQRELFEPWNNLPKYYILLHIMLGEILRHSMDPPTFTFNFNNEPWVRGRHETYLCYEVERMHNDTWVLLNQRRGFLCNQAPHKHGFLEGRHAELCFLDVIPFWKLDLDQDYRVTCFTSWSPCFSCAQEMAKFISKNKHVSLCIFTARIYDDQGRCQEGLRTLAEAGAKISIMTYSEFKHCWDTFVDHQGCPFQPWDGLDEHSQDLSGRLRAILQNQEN
Alkaline phosphatase, placental type, sequence (P05187 whole entry): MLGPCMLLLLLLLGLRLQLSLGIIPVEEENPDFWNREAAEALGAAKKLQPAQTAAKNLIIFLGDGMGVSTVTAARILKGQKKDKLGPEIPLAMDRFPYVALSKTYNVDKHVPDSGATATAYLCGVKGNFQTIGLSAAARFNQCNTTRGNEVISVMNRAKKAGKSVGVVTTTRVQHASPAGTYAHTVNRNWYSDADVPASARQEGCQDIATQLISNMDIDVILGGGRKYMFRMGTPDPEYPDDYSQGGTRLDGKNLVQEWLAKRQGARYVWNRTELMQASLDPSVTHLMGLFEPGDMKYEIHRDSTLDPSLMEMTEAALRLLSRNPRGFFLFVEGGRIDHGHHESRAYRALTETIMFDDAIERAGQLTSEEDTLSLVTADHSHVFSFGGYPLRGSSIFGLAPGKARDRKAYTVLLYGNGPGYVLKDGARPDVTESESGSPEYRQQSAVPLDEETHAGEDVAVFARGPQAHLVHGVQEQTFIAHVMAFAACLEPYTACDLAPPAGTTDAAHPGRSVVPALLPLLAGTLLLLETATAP
T4 sequence (Q92731 whole entry): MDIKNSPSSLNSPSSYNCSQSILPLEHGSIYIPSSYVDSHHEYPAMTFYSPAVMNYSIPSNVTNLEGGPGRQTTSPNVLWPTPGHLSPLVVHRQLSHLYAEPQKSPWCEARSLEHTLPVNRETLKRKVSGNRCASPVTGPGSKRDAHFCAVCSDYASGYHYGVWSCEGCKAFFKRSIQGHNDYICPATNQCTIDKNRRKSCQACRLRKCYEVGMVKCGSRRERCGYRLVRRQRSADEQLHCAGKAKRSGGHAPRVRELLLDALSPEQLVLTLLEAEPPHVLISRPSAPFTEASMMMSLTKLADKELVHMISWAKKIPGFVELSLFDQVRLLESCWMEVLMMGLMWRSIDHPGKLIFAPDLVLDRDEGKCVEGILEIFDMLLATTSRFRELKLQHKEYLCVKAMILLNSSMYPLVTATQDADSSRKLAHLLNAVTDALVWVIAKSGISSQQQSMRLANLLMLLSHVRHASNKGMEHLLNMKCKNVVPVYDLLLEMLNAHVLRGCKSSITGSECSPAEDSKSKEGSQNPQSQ
Coagulation factor XII, sequence (P00748 20-372 limits assumed): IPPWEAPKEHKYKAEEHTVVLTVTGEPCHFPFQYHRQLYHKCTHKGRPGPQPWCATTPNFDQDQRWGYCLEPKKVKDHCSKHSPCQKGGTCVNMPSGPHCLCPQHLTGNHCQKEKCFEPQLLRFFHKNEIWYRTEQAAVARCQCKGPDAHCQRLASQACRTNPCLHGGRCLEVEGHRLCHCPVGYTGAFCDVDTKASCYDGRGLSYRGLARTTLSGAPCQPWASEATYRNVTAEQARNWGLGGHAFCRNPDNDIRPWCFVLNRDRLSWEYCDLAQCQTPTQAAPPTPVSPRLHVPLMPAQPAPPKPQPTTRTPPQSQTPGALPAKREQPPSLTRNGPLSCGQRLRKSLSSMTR
Coagulation factor XII, sequence (P00748 373-615 limits assumed): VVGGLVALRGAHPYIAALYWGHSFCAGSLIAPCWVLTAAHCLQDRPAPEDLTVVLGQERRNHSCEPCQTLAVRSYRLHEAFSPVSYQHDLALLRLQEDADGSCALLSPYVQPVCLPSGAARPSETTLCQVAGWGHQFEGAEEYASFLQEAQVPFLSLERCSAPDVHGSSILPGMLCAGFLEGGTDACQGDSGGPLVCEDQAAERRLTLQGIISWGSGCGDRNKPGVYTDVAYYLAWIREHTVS
Glucose-6-phosphate 1-dehydrogenase, sequence (P11413 whole entry): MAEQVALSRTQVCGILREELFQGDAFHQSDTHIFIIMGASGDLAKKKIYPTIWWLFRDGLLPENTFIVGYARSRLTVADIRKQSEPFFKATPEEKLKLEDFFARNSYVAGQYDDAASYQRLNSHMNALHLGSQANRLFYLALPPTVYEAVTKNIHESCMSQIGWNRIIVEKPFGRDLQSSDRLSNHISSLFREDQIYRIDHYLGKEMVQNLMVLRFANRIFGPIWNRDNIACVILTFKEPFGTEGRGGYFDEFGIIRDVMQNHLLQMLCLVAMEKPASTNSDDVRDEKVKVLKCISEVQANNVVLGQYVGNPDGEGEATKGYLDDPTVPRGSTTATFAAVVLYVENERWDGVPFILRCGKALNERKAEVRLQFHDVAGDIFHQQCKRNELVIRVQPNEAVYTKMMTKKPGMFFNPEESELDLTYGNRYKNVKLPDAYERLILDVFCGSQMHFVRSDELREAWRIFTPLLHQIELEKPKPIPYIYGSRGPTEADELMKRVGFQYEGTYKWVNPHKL
Hexokinase, sequence (Q38C41 whole entry): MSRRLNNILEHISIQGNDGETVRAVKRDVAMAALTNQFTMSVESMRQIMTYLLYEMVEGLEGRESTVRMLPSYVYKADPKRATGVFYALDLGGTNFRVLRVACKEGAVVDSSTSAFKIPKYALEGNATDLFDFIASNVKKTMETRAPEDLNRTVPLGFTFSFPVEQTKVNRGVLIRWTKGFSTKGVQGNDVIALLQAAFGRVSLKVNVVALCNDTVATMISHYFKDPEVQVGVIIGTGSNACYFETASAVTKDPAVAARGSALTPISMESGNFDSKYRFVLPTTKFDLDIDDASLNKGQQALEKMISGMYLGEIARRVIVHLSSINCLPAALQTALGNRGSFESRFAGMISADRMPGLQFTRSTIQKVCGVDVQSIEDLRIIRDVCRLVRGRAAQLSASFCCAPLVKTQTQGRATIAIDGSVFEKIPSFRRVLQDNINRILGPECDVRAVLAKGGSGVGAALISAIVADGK
Glyceraldehyde-3-phosphate dehydrogenase, sequence (P04406 whole entry): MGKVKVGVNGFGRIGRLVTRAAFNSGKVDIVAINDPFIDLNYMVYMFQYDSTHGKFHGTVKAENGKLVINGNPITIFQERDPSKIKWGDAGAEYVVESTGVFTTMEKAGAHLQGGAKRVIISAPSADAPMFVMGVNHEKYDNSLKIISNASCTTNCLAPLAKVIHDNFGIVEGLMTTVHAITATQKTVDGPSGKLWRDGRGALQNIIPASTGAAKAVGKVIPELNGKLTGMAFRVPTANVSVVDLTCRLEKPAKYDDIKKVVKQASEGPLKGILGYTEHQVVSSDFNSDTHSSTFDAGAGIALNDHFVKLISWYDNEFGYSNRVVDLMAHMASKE
Polyadenylate-binding protein 1, sequence (P11940 whole entry): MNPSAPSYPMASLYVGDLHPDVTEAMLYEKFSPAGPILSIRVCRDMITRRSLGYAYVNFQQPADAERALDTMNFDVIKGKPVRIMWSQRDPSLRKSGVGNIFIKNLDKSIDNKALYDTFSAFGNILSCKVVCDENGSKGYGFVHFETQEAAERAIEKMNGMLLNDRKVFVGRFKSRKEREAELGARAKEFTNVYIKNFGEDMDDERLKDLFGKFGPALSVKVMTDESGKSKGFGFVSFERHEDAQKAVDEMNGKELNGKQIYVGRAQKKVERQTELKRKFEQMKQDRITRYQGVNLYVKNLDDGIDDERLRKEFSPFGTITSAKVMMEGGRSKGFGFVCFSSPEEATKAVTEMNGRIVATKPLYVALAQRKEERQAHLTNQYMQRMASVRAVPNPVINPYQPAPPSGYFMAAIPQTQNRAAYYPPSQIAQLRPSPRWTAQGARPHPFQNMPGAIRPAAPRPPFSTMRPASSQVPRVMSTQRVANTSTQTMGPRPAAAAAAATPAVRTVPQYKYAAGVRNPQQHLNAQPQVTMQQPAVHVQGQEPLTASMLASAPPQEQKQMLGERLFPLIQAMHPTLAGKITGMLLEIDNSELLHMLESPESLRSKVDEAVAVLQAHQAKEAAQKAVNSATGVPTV

For `CCCn1c2c(c(=N)c3c1CCC3)CCC2`, the IC50 (as a rule, the concentration that gives 50% inhibition) is 2.76 µM (active) in [1], > 100 µM (inactive) in assay [2], 2.66 µM (active) in assay [3] and 4.08 µM (active) in [4].
For the compound `COc1cccc(NC(C(=O)Nc2cccc(C(C)=O)c2)c2ccccc2)c1` (stereo not drawn), the IC50 in assay [5] is > 50 µM (inactive).
In the case of `Cc1n[nH]c2c1C(=O)CC(c1ccc(F)cc1)C2` (stereo not drawn), the IC50 is > 100 µM (inactive) in assay [6], 14.4 µM (active) in assay [7] and > 100 µM (not active) in assay [8].
As to `COc1ccc2c(c1)c(=O)oc1cc(OCC(=O)N3CCC(C)CC3)ccc12`, the EC50 in assay [9] and in assay [11] was > 20 µM (not active) throughout. The IC50 in [10] was 31.8 µM (active); in [1] it was 21.6 µM (active); in assay [12], 11.7 µM (active); in [3] it was > 100 µM (inactive); in assay [13], 5.31 µM (active); in [14], > 100 µM (active). Further, in [15], the IC50 is reported as 14.3 µM (not active).
As for `O=c1c2ccccc2sn1-c1ccc(Cl)cc1`, the IC50 is 35.6 µM (active) in [16], 10.5 µM (active) in assay [18], 1.1 µM (active) in [19] and 34.7 µM (active) in assay [20]. Also, the CC50 (commonly the concentration giving 50% cytotoxicity) in assay [17] was 100 µM (active).
`O=C(Nc1ncc(Cc2ccccc2)s1)c1cccs1`: the EC50 (in general, the midpoint of the concentration-response curve) in [21] is > 150 µM (not active); in assay [22] it was > 150 µM (not active); in assay [23], 15.6 µM (active). Also, the IC50 in assay [5] was > 50 µM (inactive).
As for `Oc1ccc(C2=Nn3c(nnc3-c3ccccc3Cl)SC2)cc1O`, the figures for the IC50 in assay [6] and in assay [7] were 15 µM (active) and 4.02 µM (active), respectively.
